This is an account of results in US10759810B2 (AO “TATKHIMFARMPREPARATY”, priority 2016, dated 2020).

The term MIC denotes the lowest concentration that inhibits growth of the organism.

Each structure is given as a SMILES string. In brackets after ≈: the same amount, converted by molar mass.

Assay in all cases: MIC, serial dilutions in Mueller-Hinton broth
What all share (type): cell-based

Assay [1] deals with Micrococcus luteus (clinical isolate). The following applies: inoculum 10^7 CFU/ml, gram-positive; for MIC: Micrococcus luteus, read-out: MIC, M. luteus. As for the experimental part: (§1) Measurement of antibacterial activity was carried out on the strains of Staphylococcus aureus ATCC 29213 (museum strain), Staphylococcus epidermidis (clinical isolate), Micrococcus luteus (clinical isolate), Bacillus subtilis 168 (museum strain), Escherichia coli ATCC 25922 (museum strain), Salmonella typhimurium TA100 (museum strain), Pseudomonas aeruginosa ATCC 27853 (museum strain). A comparative assessment of the spectrum of antibacterial action on reference strains and clinical isolates of gram-positive microorganisms was carried out using a micromethod for determining the minimum inhibitory concentration (MIC) using serial dilutions in Mueller-Hinton broth using 96-well sterile plates.
(§2) The first lowest concentration of the antibiotic (from a series of successive dilutions), where bacterial growth is not visually determined, is considered to be the minimum inhibitory concentration (MIC).
(§3) For the preparation of inoculum (infectious material used for artificial contamination), intended for the study of antibacterial activity, was used a pure daily culture of bacteria grown on a dense nutrient medium (agar LB medium). In a sterile isotonic solution of sodium chloride, a suspension of microorganisms was prepared, adjusting the inoculum density to 0.5 according to the McFarland standard (1.5·10^8 CFU/ml). Then, the resulting inoculum was diluted to a concentration of 10^7 CFU/ml with LB-broth. The inoculum was used for 15 minutes after preparation; the purity of the bacterial strains was monitored before each experiment.
(§4) 100 μl of Muller-Hinton broth was added to the wells of each plate; the test base was introduced into the first well at a concentration of 128 μg/ml in a volume of 100 μl and its concentration was adjusted to 0.25 μg/ml by consecutive two-fold dilution. […] Each preparation in the experiment was titrated three times. […] In addition, the purity of nutrient media and solvents was monitored. The plates were incubated in a thermostat at […] for 24 hours.
(§5) The growth of cultures was assessed visually, comparing the growth of microorganisms in the presence of test compounds with the growth of culture without them.

In assay [2] the test system is Salmonella typhimurium TA100 (museum strain). The following applies: inoculum 10^7 CFU/ml, gram-negative; for MIC: Salmonella enterica, TYPHIMURIUM, read-out: MIC, S. typhimurium. As for the experimental part: as §1, §2, §3, §4, §5
The subject of assay [3] is Bacillus subtilis 168 (museum strain). Conditions: inoculum 10^7 CFU/ml, gram-positive; for MIC: Bacillus subtilis, read-out: MIC, B. subtilis. As for the experimental part: as §1, §2, §3, §4, §5
For assay [4], the system named is Staphylococcus epidermidis (clinical isolate). Conditions: inoculum 10^7 CFU/ml, gram-positive; for MIC: Staphylococcus epidermidis, read-out: MIC, S. epidermidis. The protocol: as §1, §2, §3, §4, §5
Assay [5] deals with Staphylococcus aureus ATCC 29213 (museum strain). The following applies: inoculum 10^7 CFU/ml, gram-positive; for MIC: Staphylococcus aureus, ATCC29213, read-out: MIC, S. aureus. As for the experimental part:
as §1, §2, §3, §4, §5

Assay [6] relates to Pseudomonas aeruginosa ATCC 27853 (museum strain). The following applies: inoculum 10^7 CFU/ml, gram-negative; for MIC: Pseudomonas aeruginosa, ATCC27853, read-out: MIC, P. aerugenosa. As for the experimental part:
as §1, §2, §3, §4, §5

Assay [7] relates to Escherichia coli ATCC 25922 (museum strain). The following applies: inoculum 10^7 CFU/ml, gram-negative; for MIC: Escherichia coli, ATCC25922, read-out: MIC, E. coli. The protocol: as §1, §2, §3, §4, §5

As for `Cc1ncc(CN2CCN(c3cc4c(cc3F)c(=O)c(C(=O)O)cn4C3CC3)CC2)c2c1OCOC2` [Compound I-12, 1-cyclopropyl-6-fluoro-7-(4-((8-methyl-4H-[1,3]dioxino [4,5-c]pyridine-5-yl)methyl)piperazine-1-yl)-4-oxo-1,4-dihydroquinolin-3-carboxylic acid], the MIC in assay [1] is 16 µg/mL (≈ 32.4 µM); in assay [2], 0.5 µg/mL (≈ 1.01 µM); in assay [3] it was below 2 µg/mL; in assay [4], 0.5 µg/mL (≈ 1.01 µM); in assay [5] it was 1 µg/mL (≈ 2.02 µM); in assay [6], 32 µg/mL (≈ 64.7 µM). Besides, in assay [7], the MIC is 8 µg/mL (≈ 16.2 µM).

`CCCC1OCc2c(CN3CCN(c4cc5c(cc4F)c(=O)c(C(=O)O)cn5C4CC4)CC3)cnc(C)c2O1` (stereo not drawn) [Compound I-7, 1-cyclopropyl-6-fluoro-7-(4-((8-methyl-2-propyl-4H-[1,3]dioxino-[4,5-c]pyridine-5-yl)methyl)piperazinyl)-4-oxo-1,4-dihydroquinolin-3-carboxylic acid]: in assay [1], the “MIC, M. luteus” value came out at 64 µg/mL (≈ 119 µM). In addition, in assay [2], the “MIC, S. typhimurium” value was 4 µg/mL (≈ 7.45 µM). Also, in assay [3], the “MIC, B. subtilis” value was below 2 µg/mL. In addition, in assay [4], the “MIC, S. epidermidis” value came to 64 µg/mL (≈ 119 µM). For the same compound, the “MIC, S. aureus” value in assay [5] came out at 64 µg/mL (≈ 119 µM). Besides, the “MIC, P. aerugenosa” value in assay [6] is above 64 µg/mL. For the same compound, in assay [7], the “MIC, E. coli” value is above 64 µg/mL.

On to `Cc1ncc(CN2CCN(c3cc4c(cc3F)c(=O)c(C(=O)O)cn4C3CC3)CC2)c2c1OC(C)OC2` (stereo not drawn) [Compound I-6, 1-cyclopropyl-6-fluoro-7-(4-((2,8-dimethyl-4H-[1,3]dioxino-[4,5-c]pyridine-5-yl)methyl)piperazinyl)-4-oxo-1,4-dihydroquinolin-3-carboxylic acid], for which the “MIC, M. luteus” value in assay [1] was found to be 8 µg/mL (≈ 15.7 µM). For the same compound, the “MIC, S. typhimurium” value in assay [2] was determined as 4 µg/mL (≈ 7.87 µM). The “MIC, B. subtilis” value in assay [3] was below 2 µg/mL. The “MIC, S. epidermidis” value in assay [4] came out at 8 µg/mL (≈ 15.7 µM). Further, the “MIC, S. aureus” value in assay [5] came out at 8 µg/mL (≈ 15.7 µM). Besides, the “MIC, P. aerugenosa” value in assay [6] was above 64 µg/mL. The “MIC, E. coli” value in assay [7] was above 64 µg/mL.

`COc1c(N2C[C@@H]3CCCN[C@@H]3C2)c(F)cc2c(=O)c(C(=O)O)cn(C3CC3)c12` [Moxifloxacin, moxifloxacin, reference compound]: the MIC in assay [1] is 4 µg/mL (≈ 9.96 µM); in assay [2], 0.5 µg/mL (≈ 1.25 µM); in assay [3], below 2 µg/mL; in assay [4], 4 µg/mL (≈ 9.96 µM); in assay [5], 1 µg/mL (≈ 2.49 µM); in assay [6], 8 µg/mL (≈ 19.9 µM). Further, the MIC in assay [7] turned out to be 2 µg/mL (≈ 4.98 µM).

As to `Cc1nc(CN2CCN(c3cc4c(cc3F)c(=O)c(C(=O)O)cn4C3CC3)CC2)c(CO)c(CO)c1O` [Compound I-11, 1-cyclopropyl-6-fluoro-7-(4-((5-hydroxy-3,4-bis(hydroxymethyl)-6-methylpyridine-2-yl)methyl)piperazinyl)-4-oxo-1,4-dihydroquinolin-3-carboxylic acid], in assay [1], the “MIC, M. luteus” value is 32 µg/mL (≈ 62.4 µM). For the same compound, the “MIC, S. typhimurium” value in assay [2] turned out to be 4 µg/mL (≈ 7.8 µM). The “MIC, B. subtilis” value in assay [3] was below 2 µg/mL. For the same compound, the “MIC, S. epidermidis” value in assay [4] was found to be 32 µg/mL (≈ 62.4 µM). For the same compound, the “MIC, S. aureus” value in assay [5] turned out to be 64 µg/mL (≈ 125 µM). For the same compound, the “MIC, P. aerugenosa” value in assay [6] was above 64 µg/mL. Also, in assay [7], the “MIC, E. coli” value was 64 µg/mL (≈ 125 µM).

Consider `CCCCCCCCC1OCc2c(CN3CCN(c4cc5c(cc4F)c(=O)c(C(=O)O)cn5C4CC4)CC3)cnc(C)c2O1` (stereo not drawn) [Compound I-8, 1-cyclopropyl-6-fluoro-7-(4-((8-methyl-2-octyl-4H-[1,3]dioxino-[4,5-c]pyridine-5-yl)methyl)piperazinyl)-4-oxo-1,4-dihydroquinolin-3-carboxylic acid], for which the “MIC, M. luteus” value in assay [1] was 64 µg/mL (≈ 105 µM). For the same compound, in assay [2], the “MIC, S. typhimurium” value stood at 4 µg/mL (≈ 6.59 µM). Also, the “MIC, B. subtilis” value in assay [3] is below 2 µg/mL. Moreover, the “MIC, S. epidermidis” value in assay [4] is 64 µg/mL (≈ 105 µM). For the same compound, in assay [5], the “MIC, S. aureus” value stood at 32 µg/mL (≈ 52.7 µM). Further, the “MIC, P. aerugenosa” value in assay [6] is above 64 µg/mL. Also, in assay [7], the “MIC, E. coli” value was above 64 µg/mL.
